“And” between values parts separate entries of the source, which are not always exact repeats. Identical values can stand only once. Like-named read-outs stand apart in the source and are kept apart here.
Assays:
[1] = tested on: androgen-independent prostate PC-3 xenograft; assay: PC-3 xenograft, (−)-gossypol and radiation (Example 20); assay type: in vivo, nude mice
Description: In this experiment, 60 male 5 to 6 week old NCI athymic NCr-nu/nu nude mice were inoculated in each flank with an injection of about 5×10^6 PC-3 cells. The best 40 xenograft recipients were used. Tumors averaged about 70 mm^3. (−)-Gossypol compounds were first dissolved in ethanol and diluted with sterile water within 5 min to a final ethanol concentration of 10% prior to each administration. Irradiated test animals were restrained, placed under the X-ray head, and covered with lead shields to ensure that the tumor area was exposed to radiation. All oral administrations of (−)-gossypol and 10% alcohol were given by gavage.
The 40 best xenograft mice were divided into experimental groups as follows: radiation only (Groups 1 and 2), 2 Gy administered 5 times/week for 3 weeks, and daily oral administration of 10% alcohol (as vehicle control); radiation plus gossypol (Groups 3 and 4), 2 Gy administered 5 times a week for 3 weeks, and 10 mg/kg of (−)-gossypol administered orally 5 times/week for 4 weeks (8 mice each Group); gossypol only (Groups 5 and 6), 10 mg/kg (−)-gossypol administered orally every day for 4 weeks (8 mice each Group); vehicle control (Groups 7 and 8), daily oral administration of 10% alcohol (8 mice each Group as vehicle control); large tumor animals (combination of Groups 9-12), tumors allowed to reach 500 mm^3.
Other remaining tumors in this group appear pale yellowish and soft as compared with that in control group with hard solid and reddish appearance, indicating tumor blood supply was inhibited.

UM-SCC-1 [2] = assay: 6-day MTT cell growth, UM-SCC-1; assay type: cell-based, human; conditions: read-out: IC50, inhibition of cell growth
Description: (§1) UM-SCC and human fibroblast cell lines were continuously exposed to varying concentrations of (−)-gossypol in 6-day MTT cell survival assays. Control wells contained media (DMEM) with vehicle alone. For each data point n=5.
(§2) Ten squamous cell carcinoma cell lines established at the University of Michigan (UM-SCC) and three human fibroblast lines were grown in Dulbecco's modified Eagle's medium (DMEM) supplemented with 10% fetal bovine serum. UM-SCC cell lines originated from the larynx (n=2; UM-SCC-12, -23), oral cavity/oropharynx (n=5; UM-SCC-1, -6, -14A, -74B, -81B), hypopharynx (n=1; UM-SCC-22A) and metastases from laryngeal cancers (n=2; UM-SCC-17B, -25). Human fibroblast cell lines originated from surgical specimens (fibroblast cell lines 2 and 3) and neonatal foreskin samples (fibroblast cell line 1).
(§3) Logarithmically growing cell lines were cultured, washed, counted, and plated at 5,000-15,000 cells per well in duplicate wells of 96-well plates and incubated in DMEM overnight. […] The MTT assay measures cell survival based on mitochondrial conversion of MTT from a soluble tetrazolium salt into an insoluble colored formazan precipitate, which is dissolved in dimethyl sulfoxide and quantitated by spectrophotometry. […] Percent absorbance relative to control was plotted as a linear function of drug concentration.

UM-SCC cell lines = assay: Flow cytometric TUNEL apoptosis assay, UM-SCC cell lines grouped by p53 status; assay type: cell-based, human; conditions: 48-hour
[3] = tested on: normal human fibroblast WI-38 cells; assay: MTT-based 5-day cell proliferation, WI-38; conditions: WI-38, FIG. 42
Excerpt: The present invention is not limited to any mechanism. Indeed, a mechanistic understanding of the invention is unnecessary to practice (make and use) the present compositions and methods.

[4] = target: T1, Bcl-XL and pro-apoptotic protein Bim (Homo sapiens, UniProt Q07817); assay: Immunoprecipitation of Bcl-XL/Bim heterodimerization in HT-29 cells; assay type: cell-based; conditions: HT-29, starting at 8 hrs
T1 construct: endogenous in cells; host or cells: HT-29 colon cancer cells
Description: In one embodiment HT-29 colon cancer cells, which express only the Bcl-xL protein, were treated with (−)-gossypol at various doses for 4 hrs, 8 hrs, and 12 hrs. To avoid the detergent effects on the dimerization of Bcl-xL proteins in immunoprecipitation experiments, following the treatment of cells with gossypol, immunoprecipitation of cell lysates was carried out in the Chaps buffer with the anti-Bcl-XL antibody. The Bcl-XL bound proteins were then immunoblotted with anti-Bim antibody. […] There is no change in the total Bcl-XL or Bim protein in the same lysates following the (−)-gossypol treatment.

Bcl-XL = target: T2, Bcl-XL (Homo sapiens, UniProt Q07817, DEL45-84); assay: 15N HSQC NMR binding to Bcl-XL
T2 construct: His-tag (N); made in house

UM-SCC-1 [5] = assay: Flow cytometric TUNEL apoptosis assay, UM-SCC-1; assay type: cell-based, human; conditions: 10 μM, 48-hour
Description: Briefly, FIGS. 24A-24C show apoptosis after (−)-gossypol as measured by a fluorescent flow cytometric TUNEL assay. Open peaks represent BrdU labeling of untreated cells. Shaded peaks indicate BrdU labeling of cell populations following 48-hour treatment with 10 μM (−)-gossypol; FIG. 24A, UM-SCC-cell lines with wild type p53; FIG. 24B, UM-SCC-cell lines with mutant p53; and FIG. 24C normal fibroblast cells.
Apoptosis of UM-SCC cell lines following (−)-gossypol treatment was quantitatively detected by enzymatic labeling of DNA strand breaks using terminal deoxynucleotidyltransferase (TdT) and Alexa Fluor-BrdUTP, known as the TdT-UTP nick end-labeling (TUNEL) assay by flow cytometry. Cells were exposed to (−)-gossypol for 48 hours, harvested, fixed and TUNEL stained according to the manufacturer's protocol (Molecular Probes Inc., Eugene, Oreg.). Ten thousand cells were analyzed per sample using excitation of Alexa Fluor at 488 nm. Apoptotic index (AI) was defined as percent of apoptotic cells in the treatment population minus that in the vehicle control population.

UM-SCC-6 = assay: 6-day MTT cell growth, UM-SCC-6; assay type: cell-based, human; conditions: read-out: IC50, inhibition of cell growth
Description: as §1, §2, §3

UM-SCC-14A = assay: Trypan blue exclusion cell death, UM-SCC-14A; assay type: cell-based, human; conditions: 10 μM, 48 hour
Description: Cells were seeded in 24 or 96-well-plates and gossypol compounds were prepared at 2-10 fold dilutions in suitable medium. […] Cell viability was then determined by the trypan-blue assays. Inhibition of cell growth was determined by treating cells with gossypol compounds for 3-6 days. Cell inhibition was determined using XTT. In some embodiments, MTT assays are used to determine cell inhibition.

[6] = Table 17 (content identical to Table 18)
[7] = Table 18, PC-3 xenograft, (−)-gossypol 10 mg/kg orally for 4 weeks, radiation 2 Gy 5 times/week

T1 sequence (Q07817 whole entry): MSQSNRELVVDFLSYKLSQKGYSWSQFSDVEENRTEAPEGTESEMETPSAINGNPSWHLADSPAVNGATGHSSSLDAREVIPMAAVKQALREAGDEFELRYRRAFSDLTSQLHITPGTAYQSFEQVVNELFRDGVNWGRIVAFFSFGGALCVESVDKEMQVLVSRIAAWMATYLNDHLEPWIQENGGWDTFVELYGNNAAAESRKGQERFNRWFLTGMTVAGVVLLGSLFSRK
T2 sequence (Q07817 with tags, fused parts or gaps DEL45-84 limits assumed): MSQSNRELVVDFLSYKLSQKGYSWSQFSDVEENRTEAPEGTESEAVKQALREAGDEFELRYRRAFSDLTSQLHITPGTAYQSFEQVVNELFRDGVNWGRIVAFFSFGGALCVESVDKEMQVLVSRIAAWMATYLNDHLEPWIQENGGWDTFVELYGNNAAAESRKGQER

Structure (SMILES): Cc1cc2c(C(C)C)c(O)c(O)c(C=O)c2c(O)c1-c1c(C)cc2c(C(C)C)c(O)c(O)c(C=O)c2c1O [(−)-gossypol]
- tumors with complete regression ([1]; (−)-gossypol 10 mg/kg p.o. q.d.×5 4 weeks + X-ray 2 Gy q.d.×5 3 weeks): At least 10 out of 16
- tumor growth inhibition compared with vehicle control, day 37 ([1]; Table 15, (−)-gossypol 10 mg/kg p.o. in combination with radiation 2 Gy per day, total 30 Gy): achieved 91.5% tumor growth
- complete tumor regression, number of tumors ([1]; Table 15, combination of (−)-gossypol with radiation, out of 16 tumors): regression in 10 out of 16 tumors in
- IC50 (UM-SCC-1 [2]): 2 µM and 1.5 µM
- mean apoptotic index (UM-SCC cell lines; two cell lines with mutant p53, 10 μM): 20.7%±9.3
- mean apoptotic index (AI) (UM-SCC cell lines; two wild-type p53 tumor cell lines, 10 μM): 85.2%±6.9
- toxicity by bodyweight measurements (PC-3 xenograft; (−)-gossypol 10 mg/kg with or without radiation): no significant toxicity
- antitumor effect (PC-3 xenograft; (−)-gossypol alone, 10 mg/kg oral, 4 weeks): minimal antitumor effect
- tumor growth inhibition compared with vehicle control, day 39 (PC-3 xenograft; Table 14, (−)-gossypol 10 mg/kg p.o. in combination with radiation 2 Gy per day, total 30 Gy): achieved 93% tumor growth
- tumor growth inhibition, day 39 (PC-3 xenograft; Table 14, PC-3 flank xenografts (~150 mm^3 at start), (−)-gossypol 10 mg/kg p.o. 5 times q week for 4 weeks, alone, not significant): regimen (about 20%, P = 0.3 or 0.7,
- Tumor Growth Delay (T − C Days) (PC-3 xenograft; [6]): 0 days
- Tumor Growth Inhibition (T/C %) (PC-3 xenograft; [6]): 98.6%
- Tumor Growth Delay (T − C Days) (PC-3 xenograft; [7]): 0 days
- Tumor Growth Inhibition (T/C %) (PC-3 xenograft; [7]): 98.6%
- cytotoxicity [3]: very limited effect
- binding of Bcl-XL and Bim in intact cells [4]: dose-dependent decrease in the binding of Bcl-XL and pro-apoptotic protein Bim
- binding to Bcl-XL by NMR (Bcl-XL): bind to the BH3 binding groove in Bcl-XL
- apoptotic index (AI) (UM-SCC-1 [5]): 90.1%
- IC50 (UM-SCC-6): 11 µM
- surviving (trypan blue excluding) fraction relative to untreated controls (UM-SCC-14A): 16%

— patent publication US8163805B2, “Small molecule antagonists of Bcl-2 family proteins” (The Regents of the University of Michigan, priority 2001, dated 2012)
